What was measured:
[1] = system: isolated rings of the saphenous artery of rabbits; assay: Vessel-relaxing action in vitro, phenylephrin-induced contractions of isolated saphenous artery rings; design: species or system rabbit; details: Oryctolagus cuniculus; contraction induced by 3×10^−8 g of phenylephrin/ml; concentration reducing control contraction by 50%
Description: (§1) The inhibition of the enzyme is investigated in an in vitro assay with recombinant Rho kinase II. The vessel-relaxing action is determined using phenylephrin-induced contractions of isolated rings of the saphenous artery of rabbits.
Vessel-Relaxing Action In Vitro
Individual 3-mm-wide rings of the isolated saphenous artery of rabbits are introduced into 5 ml organ baths with Krebs-Henseleit solution (37° C., gassed with carbogen). The vessel tone is monitored isometrically and registered. Contractions are induced by addition of 3×10^−8 g of phenylephrin/ml, which is washed out again after 4 min. After a number of control cycles, the rings are pre-incubated with the substance to be examined, with the dosage being increased for each further cycle, and the subsequent contraction is compared to the intensity of the last control contraction.

[2] = target: T1, recombinant Rho kinase II (ROKα) (Homo sapiens, UniProt O75116); assay: Inhibition of recombinant Rho kinase II (ROKα), 33P uptake into S6 substrate peptide; assay type: biochemical; details: 33P-ATP, S6 phosphate-acceptor peptide, 20 min at 37° C., vs solvent control
T1 construct: purchased Upstate Biotechnology
Description: as §1
Inhibition of Recombinant Rho Kinase II (ROKα)
The activity of Rho kinase is determined by the uptake of ^33P phosphate into a substrate peptide. To this end, commercially available Rho kinase II (Upstate Biotechnology) is pre-incubated at 37° C. in the presence of the S6 phosphate-acceptor peptide with the test substances or a solvent control for 10 min. The kinase reaction is then started by addition of ^33P-labelled ATP. After 20 min at 37° C., the reaction is stopped by addition of H3PO4. Aliquots are pipetted onto filters and the filters are washed and then covered with scintillator. The radioactivity of the ^33P-labelled peptides bound to the filter is measured in a Micro-Beta counter.

T1 sequence (O75116 whole entry): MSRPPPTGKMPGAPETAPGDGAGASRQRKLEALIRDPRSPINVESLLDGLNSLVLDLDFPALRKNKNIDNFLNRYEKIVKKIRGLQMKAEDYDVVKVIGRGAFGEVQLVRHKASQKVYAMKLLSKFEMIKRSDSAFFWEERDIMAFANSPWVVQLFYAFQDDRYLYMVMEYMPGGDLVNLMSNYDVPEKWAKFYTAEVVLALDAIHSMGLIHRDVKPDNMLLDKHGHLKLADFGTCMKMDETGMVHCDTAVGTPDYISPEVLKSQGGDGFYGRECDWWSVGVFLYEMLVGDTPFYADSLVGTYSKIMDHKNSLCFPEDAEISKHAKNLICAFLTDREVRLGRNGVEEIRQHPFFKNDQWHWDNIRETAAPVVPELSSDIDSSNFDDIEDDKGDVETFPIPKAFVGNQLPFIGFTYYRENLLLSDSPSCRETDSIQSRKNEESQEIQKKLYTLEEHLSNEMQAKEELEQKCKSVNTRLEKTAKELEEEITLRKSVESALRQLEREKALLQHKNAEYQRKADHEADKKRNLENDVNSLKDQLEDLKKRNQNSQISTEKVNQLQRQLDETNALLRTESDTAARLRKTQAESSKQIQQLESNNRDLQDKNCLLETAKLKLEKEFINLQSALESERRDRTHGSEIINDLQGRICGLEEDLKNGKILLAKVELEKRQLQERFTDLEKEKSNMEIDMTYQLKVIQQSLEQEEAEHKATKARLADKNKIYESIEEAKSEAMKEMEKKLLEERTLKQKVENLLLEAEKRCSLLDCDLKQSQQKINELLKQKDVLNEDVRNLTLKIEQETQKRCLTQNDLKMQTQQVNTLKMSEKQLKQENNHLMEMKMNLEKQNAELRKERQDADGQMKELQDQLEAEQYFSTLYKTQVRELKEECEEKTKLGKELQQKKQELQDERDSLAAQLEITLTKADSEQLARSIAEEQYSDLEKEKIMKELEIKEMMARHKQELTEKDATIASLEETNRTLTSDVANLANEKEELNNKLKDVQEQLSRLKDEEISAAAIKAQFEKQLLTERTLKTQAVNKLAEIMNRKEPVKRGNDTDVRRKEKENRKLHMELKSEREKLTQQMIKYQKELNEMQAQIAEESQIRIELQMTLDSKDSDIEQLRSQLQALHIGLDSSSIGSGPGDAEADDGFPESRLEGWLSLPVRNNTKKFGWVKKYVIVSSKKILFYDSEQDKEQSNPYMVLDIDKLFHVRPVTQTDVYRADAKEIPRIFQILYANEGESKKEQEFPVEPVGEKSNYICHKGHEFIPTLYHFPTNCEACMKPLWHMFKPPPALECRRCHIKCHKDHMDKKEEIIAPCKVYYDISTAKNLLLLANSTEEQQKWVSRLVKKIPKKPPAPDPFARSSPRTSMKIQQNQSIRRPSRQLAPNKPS

Compound	IC50 [1]	IC50 [2]
Cc1n[nH]c2cccc(Oc3ccc(Nc4cc(-c5ccncc5)nc(N)n4)cc3F)c12 [Example 1, N-[2-Amino-6-(4-pyridinyl)-4-pyrimidinyl]-N-{3-fluoro-4-[(3-methyl-1H-indazol-4-yl)oxy]phenyl}amine]	6800 nM	–
Nc1nc(Nc2ccc(Oc3ccc4[nH]ncc4c3)c(F)c2)cc(-c2ccncc2)n1 [Example 5, N-[2-Amino-6-(4-pyridinyl)-4-pyrimidinyl]-N-[3-fluoro-4-(1H-indazol-5-yloxy)-phenyl]amine]	1020 nM	20 nM
Nc1nc(Nc2ccc(Oc3ccc4[nH]ncc4c3)c(Cl)c2)cc(-c2ccncc2)n1 [Example 6]	4330 nM	30 nM
Nc1nc(Nc2ccc(Oc3ccc4cn[nH]c4c3)c(F)c2)cc(-c2ccncc2)n1 [Example 7]	6700 nM	–
Nc1nc(Nc2ccc(Oc3ccc4[nH]ncc4c3)c(F)c2)cc(N2C[C@H]3CCCN[C@H]3C2)n1 [Example 11, 6-[(4aR,7aR)-Octahydro-6H-pyrrolo[3,4-b]pyridin-6-yl]-N-4-[3-fluoro-4-(1H-indazol-5-yloxy)phenyl]-2,4-pyrimidinediamine]	350 nM	6 nM
Nc1nc(Nc2ccc(Oc3ccc4[nH]ncc4c3)c(F)c2)cc(N2C[C@@H]3CCCN[C@@H]3C2)n1 [Example 12]	2700 nM	55 nM
Nc1nc(Nc2ccc(Oc3ccc4[nH]ncc4c3)c(Cl)c2)cc(N2C[C@H]3CCCN[C@H]3C2)n1 [Example 13]	2000 nM	9 nM
Nc1nc(Nc2ccc(Oc3ccc4[nH]ncc4c3)c(Cl)c2)cc(N[C@@H]2CCCC[C@H]2N)n1 [Example 15]	–	20 nM
Nc1nc(Nc2ccc(Oc3ccc4[nH]ncc4c3)c(F)c2)cc(N[C@@H]2CCCC[C@H]2N)n1 [Example 16]	6900 nM	50 nM
Nc1nc(Nc2ccc(Oc3ccc4[nH]ncc4c3)c(F)c2)cc(-c2ccccc2)n1 [Example 18, N-(2-Amino-6-phenyl-4-pyrimidinyl)-N-[3-fluoro-4-(1H-indazol-5-yloxy)phenyl]amine]	–	43 nM
CN(CCO)CC1CCN(c2cc(Nc3ccc(Oc4ccnc5[nH]ccc45)c(F)c3)nc(N)n2)C1 (centres unmarked) [Example 68]	260 nM	1 nM
CC(C)(C)NCc1cc(Nc2ccc(Oc3ccnc4[nH]ccc34)c(F)c2)nc(N)n1 [Example 116]	150 nM	–
Nc1nc(CN2CCCCC2)cc(Nc2ccc(Oc3ccnc4[nH]ccc34)c(F)c2)n1 [Example 117, N^4-[3-Fluoro-4-(1H-pyrrolo[2,3-b]pyridin-4-yloxy)phenyl]-6-(piperidin-1-ylmethyl)-pyrimidine-2,4-diamine]	80 nM	–

Source: patent US7737153B2, “Heteroaryloxy-substituted phenylaminopyrimidines as rho-kinase inhibitors” (Bayer Schering Pharma Aktiengesellschaft, priority 2002, dated 2010)
